These results are taken from the supplement of paper PMC8960247.

One assay relates to 621-102 (TSC2-deficient). Put plainly: relative viability vs DMSO; higher = less cytotoxic. As to conditions: serum: 10% FBS, 72 h.
The subject of a further assay is 621-103 (TSC2-rescued). Described as above. To be noted: serum: 10% FBS, 72 h.

Where a name gives a salt, the structure may show the parent alone. ± gives the standard error.
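Also: immortalized renal angiomyolipoma cells stably carrying empty vector or TSC2, dosed in 384-well plates in DMEM, viability normalized to vehicle-treated wells within each plate.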

For `Cc1ccc(NC(=O)c2ccc(CN3CCN(C)CC3)cc2)cc1Nc1nccc(-c2cccnc2)n1` [Imatinib Mesylate], the relative viability with 621-102 (TSC2-deficient) (0.0001 µM) stood at 99 ± 2.9%; with 621-102 (TSC2-deficient) (0.001 µM) it was 113 ± 3.7%; with 621-102 (TSC2-deficient) (0.01 µM), 108 ± 3.2%; in the assay with 621-102 (TSC2-deficient) (0.1 µM), 111 ± 3.6%; in the assay on 621-102 (TSC2-deficient) (1 µM) it was 107 ± 3.1%; in the assay on 621-102 (TSC2-deficient) (10 µM), 94.78 ± 0.7%. Also, the relative viability was 95.2 ± 5.4% in the assay with 621-103 (TSC2-rescued) (0.0001 µM); 90.4 ± 3.4% in the assay on 621-103 (TSC2-rescued) (0.001 µM); 101.6 ± 0.44% with 621-103 (TSC2-rescued) (0.01 µM); 97.9 ± 1.8% with 621-103 (TSC2-rescued) (0.1 µM); 98.3 ± 4.3% in the assay with 621-103 (TSC2-rescued) (1 µM); 94.8 ± 4.8% with 621-103 (TSC2-rescued) (10 µM).

For `CCCCC1=NC2(CCCC2)C(=O)N1Cc1ccc(-c2ccccc2-c2nnn[nH]2)cc1` [Irbesartan (Avapro)], the relative viability is 103.3 ± 0.78% in the assay with 621-102 (TSC2-deficient) (0.0001 µM); 100.8 ± 0.93% in the assay with 621-102 (TSC2-deficient) (0.001 µM); 105 ± 3.8% in the assay with 621-102 (TSC2-deficient) (0.01 µM); 101 ± 4.9% with 621-102 (TSC2-deficient) (0.1 µM); 110 ± 1.1% in the assay with 621-102 (TSC2-deficient) (1 µM); 104 ± 2.6% in the assay with 621-102 (TSC2-deficient) (10 µM). Besides, the relative viability was 102 ± 1.3% in the assay on 621-103 (TSC2-rescued) (0.0001 µM); 96.3 ± 4.2% with 621-103 (TSC2-rescued) (0.001 µM); 95.6 ± 3.6% in the assay on 621-103 (TSC2-rescued) (0.01 µM); 102 ± 1.9% in the assay on 621-103 (TSC2-rescued) (0.1 µM); 103 ± 4% with 621-103 (TSC2-rescued) (1 µM); 107.2 ± 0.91% in the assay on 621-103 (TSC2-rescued) (10 µM).

For `CCc1c2c(nc3ccc(OC(=O)N4CCC(N5CCCCC5)CC4)cc13)-c1cc3c(c(=O)n1C2)COC(=O)[C@]3(O)CC` [Irinotecan HCl Trihydrate], the relative viability stood at 94 ± 3.9% in the assay with 621-102 (TSC2-deficient) (0.0001 µM); 98.4 ± 3% in the assay with 621-102 (TSC2-deficient) (0.001 µM); 97.8 ± 1.5% with 621-102 (TSC2-deficient) (0.01 µM); 108 ± 4.1% in the assay on 621-102 (TSC2-deficient) (0.1 µM); 99.4 ± 3% in the assay on 621-102 (TSC2-deficient) (1 µM); 63.351 ± 0.053% in the assay with 621-102 (TSC2-deficient) (10 µM). Further, the relative viability in the assay with 621-103 (TSC2-rescued) (0.0001 µM) stood at 107 ± 5.2%; with 621-103 (TSC2-rescued) (0.001 µM), 107 ± 3.3%; with 621-103 (TSC2-rescued) (0.01 µM), 105 ± 1.8%; with 621-103 (TSC2-rescued) (0.1 µM) it was 101 ± 5.9%; in the assay on 621-103 (TSC2-rescued) (1 µM) it was 99.3 ± 1.9%; with 621-103 (TSC2-rescued) (10 µM), 57.5 ± 2.7%.

In the case of `CCc1c2c(nc3ccc(OC(=O)N4CCC(N5CCCCC5)CC4)cc13)-c1cc3c(c(=O)n1C2)COC(=O)[C@]3(O)CC` [Irinotecan], the relative viability with 621-102 (TSC2-deficient) (0.0001 µM) stood at 105 ± 1.2%; with 621-102 (TSC2-deficient) (0.001 µM), 106 ± 3.8%; in the assay with 621-102 (TSC2-deficient) (0.01 µM) it was 93.9 ± 2.1%; in the assay on 621-102 (TSC2-deficient) (0.1 µM), 108 ± 2.8%; in the assay with 621-102 (TSC2-deficient) (1 µM), 82 ± 0.64%; in the assay on 621-102 (TSC2-deficient) (10 µM) it was 33.7 ± 0.69%. Besides, the relative viability is 104 ± 4.3% in the assay on 621-103 (TSC2-rescued) (0.0001 µM); 98.62 ± 0.9% in the assay on 621-103 (TSC2-rescued) (0.001 µM); 103 ± 1.1% in the assay on 621-103 (TSC2-rescued) (0.01 µM); 99.19 ± 0.57% in the assay with 621-103 (TSC2-rescued) (0.1 µM); 84.6 ± 1.1% in the assay on 621-103 (TSC2-rescued) (1 µM); 30.2 ± 0.71% in the assay with 621-103 (TSC2-rescued) (10 µM).

Turning to `Clc1ccc(C(Cn2ccnc2)OCc2c(Cl)cccc2Cl)c(Cl)c1` (stereo not drawn) [Isoconazole], the relative viability is 104 ± 1.2% in the assay on 621-102 (TSC2-deficient) (0.0001 µM); 107 ± 2.4% with 621-102 (TSC2-deficient) (0.001 µM); 86.81 ± 0.67% in the assay on 621-102 (TSC2-deficient) (0.01 µM); 108.4 ± 0.37% with 621-102 (TSC2-deficient) (0.1 µM); 107 ± 1.4% with 621-102 (TSC2-deficient) (1 µM); 100 ± 4.3% in the assay on 621-102 (TSC2-deficient) (10 µM). In addition, the relative viability in the assay with 621-103 (TSC2-rescued) (0.0001 µM) stood at 104 ± 2.4%; with 621-103 (TSC2-rescued) (0.001 µM) it was 109 ± 4%; in the assay on 621-103 (TSC2-rescued) (0.01 µM), 105 ± 1%; in the assay on 621-103 (TSC2-rescued) (0.1 µM), 103.2 ± 0.24%; in the assay on 621-103 (TSC2-rescued) (1 µM), 108 ± 1.4%; in the assay with 621-103 (TSC2-rescued) (10 µM) it was 95.32 ± 0.49%.

For the compound `CC(C)NCC(O)c1ccc(O)c(O)c1` (stereo not drawn) [Isoprenaline HCl], the relative viability with 621-102 (TSC2-deficient) (0.0001 µM) stood at 103 ± 4.7%; in the assay with 621-102 (TSC2-deficient) (0.001 µM) it was 99.5 ± 2.4%; in the assay with 621-102 (TSC2-deficient) (0.01 µM), 102 ± 1.1%; with 621-102 (TSC2-deficient) (0.1 µM), 95.5 ± 4.2%; in the assay with 621-102 (TSC2-deficient) (1 µM) it was 94.6 ± 2.4%; in the assay with 621-102 (TSC2-deficient) (10 µM) it was 98.26 ± 0.6%. Besides, the relative viability in the assay on 621-103 (TSC2-rescued) (0.0001 µM) was 95.6 ± 2%; in the assay with 621-103 (TSC2-rescued) (0.001 µM) it was 88 ± 5.3%; in the assay on 621-103 (TSC2-rescued) (0.01 µM), 91.5 ± 1.7%; in the assay with 621-103 (TSC2-rescued) (0.1 µM), 94.2 ± 6.9%; with 621-103 (TSC2-rescued) (1 µM), 91.3 ± 2.6%; with 621-103 (TSC2-rescued) (10 µM), 83.3 ± 1.6%.

As for `Cc1ccc(C(=O)N(CCCN)[C@@H](c2nc3cc(Cl)ccc3c(=O)n2Cc2ccccc2)C(C)C)cc1` [Ispinesibmesilate], the relative viability in the assay with 621-102 (TSC2-deficient) (0.0001 µM) is 95.1 ± 1.5%; in the assay with 621-102 (TSC2-deficient) (0.001 µM), 81.2 ± 1.3%; in the assay on 621-102 (TSC2-deficient) (0.01 µM), 77.62 ± 0.57%; in the assay on 621-102 (TSC2-deficient) (0.1 µM), 63.9 ± 3%; with 621-102 (TSC2-deficient) (1 µM), 73 ± 1.6%; with 621-102 (TSC2-deficient) (10 µM), 1.22 ± 0.096%. For the same compound, the relative viability with 621-103 (TSC2-rescued) (0.0001 µM) turned out to be 68.8 ± 3%; with 621-103 (TSC2-rescued) (0.001 µM), 51.76 ± 0.14%; in the assay on 621-103 (TSC2-rescued) (0.01 µM), 55.41 ± 0.1%; in the assay with 621-103 (TSC2-rescued) (0.1 µM), 49.4 ± 1.4%; in the assay on 621-103 (TSC2-rescued) (1 µM) it was 53.36 ± 0.26%; with 621-103 (TSC2-rescued) (10 µM) it was 1.19 ± 0.11%.

For the compound `CCC(C)n1ncn(-c2ccc(N3CCN(c4ccc(OCC5COC(Cn6cncn6)(c6ccc(Cl)cc6Cl)O5)cc4)CC3)cc2)c1=O` (stereo not drawn) [Itraconazole (Sporanox)], the relative viability with 621-102 (TSC2-deficient) (0.0001 µM) was found to be 108 ± 2.3%; in the assay with 621-102 (TSC2-deficient) (0.001 µM), 115 ± 3.1%; in the assay on 621-102 (TSC2-deficient) (0.01 µM) it was 102 ± 1.8%; in the assay on 621-102 (TSC2-deficient) (0.1 µM), 112 ± 3.4%; in the assay with 621-102 (TSC2-deficient) (1 µM) it was 60 ± 7.2%; in the assay with 621-102 (TSC2-deficient) (10 µM) it was 7.53 ± 0.32%. The relative viability in the assay on 621-103 (TSC2-rescued) (0.0001 µM) worked out at 98.8 ± 5.2%; with 621-103 (TSC2-rescued) (0.001 µM), 86.8 ± 1.1%; in the assay on 621-103 (TSC2-rescued) (0.01 µM), 95.59 ± 0.8%; with 621-103 (TSC2-rescued) (0.1 µM), 97.5 ± 6.4%; in the assay with 621-103 (TSC2-rescued) (1 µM), 70.71 ± 0.48%; with 621-103 (TSC2-rescued) (10 µM), 15.44 ± 0.12%.

Turning to `CCCNC(=O)Nc1ccc(Oc2ncnc3cc(OC)c(OC)cc23)cc1Cl` [KRN 633], the relative viability with 621-102 (TSC2-deficient) (0.0001 µM) is 84.4 ± 4.7%; in the assay with 621-102 (TSC2-deficient) (0.001 µM) it was 119 ± 2.7%; with 621-102 (TSC2-deficient) (0.01 µM), 104 ± 12%; in the assay with 621-102 (TSC2-deficient) (0.1 µM), 94.6 ± 3.8%; in the assay on 621-102 (TSC2-deficient) (1 µM), 100 ± 2.7%; with 621-102 (TSC2-deficient) (10 µM), 102 ± 1.3%. Further, the relative viability was 85.6 ± 4.4% in the assay on 621-103 (TSC2-rescued) (0.0001 µM); 95.9 ± 4.2% in the assay with 621-103 (TSC2-rescued) (0.001 µM); 100 ± 3% in the assay with 621-103 (TSC2-rescued) (0.01 µM); 96.9 ± 1.9% with 621-103 (TSC2-rescued) (0.1 µM); 90.3 ± 3.6% in the assay with 621-103 (TSC2-rescued) (1 µM); 99.8 ± 3.4% in the assay on 621-103 (TSC2-rescued) (10 µM).
